What was measured:
Human COX II = molecular target: T1, Human COX II (Homo sapiens, UniProt P35354); experiment: COX II activity in vitro (PGE2 formed, ELISA; recombinant enzyme, baculovirus/SF9 insect cell membranes); type: biochemical; conditions: arachidonic acid 10 μM; 10-20 min pre-incubation; pH 8.0; read-out: Human COX II ID50
T1 construct: A 2.0 kb fragment containing the coding region of either human or murine COX-I or human or murine COX-II; made in house; host or cells: SF9 insect cells (recombinant baculovirus, transfer vector pVL1393)
T1 sequence (P35354 18-604): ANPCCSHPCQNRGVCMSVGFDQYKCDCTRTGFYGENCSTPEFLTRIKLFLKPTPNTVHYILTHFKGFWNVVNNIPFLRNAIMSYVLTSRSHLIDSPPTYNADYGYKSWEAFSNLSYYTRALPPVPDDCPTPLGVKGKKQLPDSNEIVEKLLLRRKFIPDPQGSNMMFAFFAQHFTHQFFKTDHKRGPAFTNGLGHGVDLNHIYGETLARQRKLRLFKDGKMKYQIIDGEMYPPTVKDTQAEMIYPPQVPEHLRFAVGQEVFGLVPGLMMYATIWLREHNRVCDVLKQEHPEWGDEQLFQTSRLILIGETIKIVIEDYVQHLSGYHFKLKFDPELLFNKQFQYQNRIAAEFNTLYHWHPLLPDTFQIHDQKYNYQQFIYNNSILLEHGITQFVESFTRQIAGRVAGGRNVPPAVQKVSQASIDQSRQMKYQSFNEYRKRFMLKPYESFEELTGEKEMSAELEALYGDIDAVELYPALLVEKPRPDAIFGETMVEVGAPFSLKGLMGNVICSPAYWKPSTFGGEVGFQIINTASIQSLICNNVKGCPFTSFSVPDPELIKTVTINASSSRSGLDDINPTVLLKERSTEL
Procedure: (§1) Evaluation of COX I and COX II activity in vitro
(§2) The COX II inhibition activity of the compounds of this invention illustrated in the Examples was determined by the following methods.
(§3) a. Preparation of recombinant CQX baculoviruses
(§4) A 2.0 kb fragment containing the coding region of either human or murine COX-I or human or murine COX-II was cloned into a BamH1 site of the baculovirus transfer vector pVL1393 (Invitrogen) to generate the baculovirus transfer vectors for COX-I and COX-II in a manner similar to the method of D. R. O'Reilly et al (Baculovirus Expression Vectors: A Laboratory Manual (1992)). Recombinant baculoviruses were isolated by transfecting 4 μg of baculovirus transfer vector DNA into SF9 insect cells ([…]) along with 200 ng of linearized baculovirus plasmid DNA by the calcium phosphate method. See M. D. Summers and G. E. Smith, A Manual of Methods for Baculovirus Vectors and Insect Cell Culture Procedures, Texas Agric. Exp. Station Bull. 1555 (1987). Recombinant viruses were purified by three rounds of plaque purification and high titer (10E7-10E8 pfu/ml) stocks of virus were prepared. For large scale production, SF9 insect cells were infected in 10 liter fermentors (0.5×10^6 /ml) with the recombinant baculovirus stock such that the multiplicity of infection was 0.1. After 72 hours the cells were centrifuged and the cell pellet homogenized in Tris/Sucrose (50 mM: 25%, pH 8.0) containing 1% 3-[(3-cholamidopropyl)dimethylammonio]-1-propanesulfonate (CHAPS). The homogenate was centrifuged at 10,000×G for 30 minutes, and the resultant supernatant was stored at -80° C. before being assayed for COX activity.
(§5) b. Assay for COX I and COX II activity:
(§6) COX activity was assayed as PGE2 formed/μg protein/time using an ELISA to detect the prostaglandin released. CHAPS-solubilized insect cell membranes containing the appropriate COX enzyme were incubated in a potassium phosphate buffer (50 mM, pH 8.0) containing epinephrine, phenol, and heme with the addition of arachidonic acid (10 μM). Compounds were pre-incubated with the enzyme for 10-20 minutes prior to the addition of arachidonic acid. Any reaction between the arachidonic acid and the enzyme was stopped after ten minutes at 37° C./room temperature by transferring 40 μl of reaction mix into 160 μl ELISA buffer and 25 μM indomethacin. The PGE2 formed was measured by standard ELISA technology (Cayman Chemical).

[1] = tested on: rat paw edema (carrageenan); experiment: Rat Carrageenan Foot Pad Edema Test; type: in vivo, Male Sprague-Dawley rats; conditions: @ 30 mg/kg body weight, oral, 1 h before carrageenan; foot volume 3 h after injection; % decrease from control paw volume
Procedure: Rat Carrageenan Foot Pad Edema Test
The carrageenan foot edema test was performed with materials, reagents and procedures essentially as described by Winter, et al., (Proc. Soc. Exp. Biol. Med., 111, 544 (1962)). Male Sprague-Dawley rats were selected in each group so that the average body weight was as close as possible. Rats were fasted with free access to water for over sixteen hours prior to the test. The rats were dosed orally (1 mL) with compounds suspended in vehicle containing 0.5% methylcellulose and 0.025% surfactant, or with vehicle alone. One hour later a subplantar injection of 0.1 mL of 1% solution of carrageenan/sterile 0.9% saline was administered and the volume of the injected foot was measured with a displacement plethysmometer connected to a pressure transducer with a digital indicator. Three hours after the injection of the carrageenan, the volume of the foot was again measured. The average foot swelling in a group of drug-treated animals was compared with that of a group of placebo-treated animals and the percentage inhibition of edema was determined (Otterhess and Bliven, Laboratory Models for Testing NSAIDs, in Non-steroidal Anti-Inflammatory Drugs, (J. Lombardino, ed. 1985)).

Human COX I = molecular target: T2, Human COX I (Homo sapiens, UniProt P23219); experiment: COX I activity in vitro (PGE2 formed, ELISA; recombinant enzyme, baculovirus/SF9 insect cell membranes); type: biochemical; conditions: arachidonic acid 10 μM; 10-20 min pre-incubation; pH 8.0; read-out: Human COX I ID50
T2 construct: A 2.0 kb fragment containing the coding region of either human or murine COX-I or human or murine COX-II; made in house; host or cells: SF9 insect cells (recombinant baculovirus, transfer vector pVL1393)
T2 sequence (P23219 24-599): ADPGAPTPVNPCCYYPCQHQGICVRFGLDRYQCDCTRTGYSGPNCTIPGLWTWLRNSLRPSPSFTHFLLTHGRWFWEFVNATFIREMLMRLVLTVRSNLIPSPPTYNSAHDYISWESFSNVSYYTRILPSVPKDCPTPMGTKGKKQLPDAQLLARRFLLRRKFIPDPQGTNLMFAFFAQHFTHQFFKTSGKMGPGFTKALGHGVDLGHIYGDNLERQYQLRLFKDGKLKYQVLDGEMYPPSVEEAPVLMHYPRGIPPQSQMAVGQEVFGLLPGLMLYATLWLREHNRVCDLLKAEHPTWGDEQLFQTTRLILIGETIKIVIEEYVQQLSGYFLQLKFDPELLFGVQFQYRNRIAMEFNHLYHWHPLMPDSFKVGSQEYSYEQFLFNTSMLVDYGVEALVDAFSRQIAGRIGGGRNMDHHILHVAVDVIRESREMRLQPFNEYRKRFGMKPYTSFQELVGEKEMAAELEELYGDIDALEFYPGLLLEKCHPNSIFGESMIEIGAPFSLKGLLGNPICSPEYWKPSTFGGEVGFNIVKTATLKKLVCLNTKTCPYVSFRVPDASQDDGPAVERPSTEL
Procedure: as §1, §2, §3, §4, §5, §6

SMILES | IC50 (Human COX II) [µM] | % Inhibition (rat paw edema) [1] [%] | IC50 (Human COX I) [µM]
COc1ccc2c(ccc3c(C(F)F)nn(-c4ccc(S(N)(=O)=O)cc4)c32)c1Cl [Example 1, 4-[6-Chloro-3-(difluoromethyl)-7-methoxy-1H-benz[g]indazol-1-yl]benzenesulfonamide] | 1 | 29 | > 100
COc1ccc2c(ccc3c(C(F)F)nn(-c4ccc(S(N)(=O)=O)cc4)c32)c1 [Example 2, 4-[3-(difluoromethyl)-7-methoxy-1H-benz[g]indazol-1-yl]benzenesulfonamide] | < 0.1 | 24 | 0.8
COc1ccc2c(ccc3c(C(F)(F)F)nn(-c4ccc(S(N)(=O)=O)cc4)c32)c1 [Example 3, 4-[7-Methoxy-3-(trifluoromethyl)-1H-benz[g]indazol-1-yl]benzenesulfonamide] | < 0.1 | – | > 100
COc1ccc2c(ccc3cnn(-c4ccc(S(N)(=O)=O)cc4)c32)c1 [Example 4, 4-[7-Methoxy-1H-benz[g]indazol-1-yl]benzenesulfonamide] | > 100 | – | > 100
NS(=O)(=O)c1ccc(-n2nc(C(F)(F)F)c3ccc4ccccc4c32)cc1 [Example 5, 4-[3-(Trifluoromethyl)-1H-benz[g]indazol-1-yl]benzenesulfonamide] | > 100 | – | > 100

Reference: patent US5696143A, “Benz [G] indazolyl derivatives for the treatment of inflammation” (priority 1994, dated 1997)
